Assay results published in patent publication US11938203B2, “Oil-dispersed composition and cosmetics for lip care using the same” (AMOREPACIFIC CORPORATION, priority 2021, dated 2024).

Test: Compatibility between water-soluble effective raw materials and oils
Format: physicochemical
Excerpt: Compatibility Between Water-Soluble Effective Raw Materials and Oils

[1] = ester oil and silicone-based oil that do not contain a glyceryl group or an isostearyl group
[2] = oil: Polyglyceryl-2 Triisostearate

Row | Compound | Compatibility with oil (in words) [1] | Compatibility with oil (oil: Diisostearyl Malate) | Compatibility with oil [2] | Compatibility with oil (in words) (diisostearyl malate oil (diester-based oil), FIG. 1) | Compatibility with oil (in words) (hydrocarbon oil-based oil or alcohol-based oil) | Compatibility with oil (oil: Diphenylsiloxy Phenyl Trimethicone) | Compatibility with oil (oil: Isononyl isononanoate) | Compatibility with oil (oil: Octyldodecyl neopentanoate) | Compatibility with oil (in words) (pentaerythrityl tetraisostearate oil, FIG. 2)
1 | Ceramides | poor compatibility | ◯ | ◯ | – | – | – | – | – | –
2 | COc1cc(/C=C/C(=O)Oc2cc(C)ccc2C(C)C)cc(OC)c1OC [Thymol trimethoxy cinnamate] | excellent compatibility | ◯ | ◯ | very good compatibility | poor compatibility | ◯ | ◯ | ◯ | very poor compatibility
